Source: patent US20090298820A1, “3-SUBSTITUTED-1H-PYRROLO[2,3-B]PYRIDINE AND 3-SUBSTITUTED-1H-PYRROLO[3,2-B]PYRIDINE COMPOUNDS, THEIR USE AS MTOR KINASE AND PI3 KINASE INHIBITORS, AND THEIR SYNTHESES” (Wyeth, priority 2008, published 2009)

Experiments:
Type in all cases: biochemical
[1] = target: mTOR (Homo sapiens, UniProt P42345); test: mTOR enzyme assay (DELFIA format, His6-S6K substrate); details: read-out: mTOR Kinase Median IC50
[2] = target: PI3Kα (Homo sapiens, UniProt P42336); test: PI3K-alpha fluorescence polarization assay; details: read-out: PI3Kα Median IC50
[3] = target: PI3Kγ (Homo sapiens, UniProt P48736); test: PI3K-gamma fluorescence polarization assay; details: read-out: PI3Kγ Median IC50
Sequence of PI3Kγ (P48736 whole entry, species assumed): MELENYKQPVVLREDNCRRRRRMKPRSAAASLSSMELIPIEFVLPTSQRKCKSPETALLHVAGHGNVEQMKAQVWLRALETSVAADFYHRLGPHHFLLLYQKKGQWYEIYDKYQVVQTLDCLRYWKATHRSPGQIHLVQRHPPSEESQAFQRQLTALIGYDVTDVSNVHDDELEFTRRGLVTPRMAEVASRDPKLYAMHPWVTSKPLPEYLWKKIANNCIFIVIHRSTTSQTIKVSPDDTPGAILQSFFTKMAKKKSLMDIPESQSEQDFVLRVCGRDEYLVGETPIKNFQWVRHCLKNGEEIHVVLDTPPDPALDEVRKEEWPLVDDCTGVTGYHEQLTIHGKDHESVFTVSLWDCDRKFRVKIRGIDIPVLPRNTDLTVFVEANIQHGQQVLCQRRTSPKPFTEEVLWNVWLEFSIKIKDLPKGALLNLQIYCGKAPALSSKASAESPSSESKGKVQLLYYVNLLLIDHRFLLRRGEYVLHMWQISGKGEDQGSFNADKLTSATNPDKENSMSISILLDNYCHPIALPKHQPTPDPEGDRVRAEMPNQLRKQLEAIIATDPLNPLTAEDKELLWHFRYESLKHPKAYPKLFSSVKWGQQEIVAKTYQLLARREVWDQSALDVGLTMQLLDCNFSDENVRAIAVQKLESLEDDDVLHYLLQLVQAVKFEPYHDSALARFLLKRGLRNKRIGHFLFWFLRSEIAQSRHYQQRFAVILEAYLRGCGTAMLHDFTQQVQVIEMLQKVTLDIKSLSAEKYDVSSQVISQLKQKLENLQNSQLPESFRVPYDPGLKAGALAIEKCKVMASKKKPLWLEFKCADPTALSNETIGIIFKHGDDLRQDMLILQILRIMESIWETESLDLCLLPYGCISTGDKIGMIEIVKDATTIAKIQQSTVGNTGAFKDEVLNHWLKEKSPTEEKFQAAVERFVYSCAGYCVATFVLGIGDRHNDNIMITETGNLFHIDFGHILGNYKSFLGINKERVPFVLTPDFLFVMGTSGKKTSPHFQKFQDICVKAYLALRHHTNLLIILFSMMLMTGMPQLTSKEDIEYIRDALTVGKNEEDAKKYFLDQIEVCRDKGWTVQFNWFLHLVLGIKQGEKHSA

Sequence of PI3Kα (P42336 whole entry, species assumed): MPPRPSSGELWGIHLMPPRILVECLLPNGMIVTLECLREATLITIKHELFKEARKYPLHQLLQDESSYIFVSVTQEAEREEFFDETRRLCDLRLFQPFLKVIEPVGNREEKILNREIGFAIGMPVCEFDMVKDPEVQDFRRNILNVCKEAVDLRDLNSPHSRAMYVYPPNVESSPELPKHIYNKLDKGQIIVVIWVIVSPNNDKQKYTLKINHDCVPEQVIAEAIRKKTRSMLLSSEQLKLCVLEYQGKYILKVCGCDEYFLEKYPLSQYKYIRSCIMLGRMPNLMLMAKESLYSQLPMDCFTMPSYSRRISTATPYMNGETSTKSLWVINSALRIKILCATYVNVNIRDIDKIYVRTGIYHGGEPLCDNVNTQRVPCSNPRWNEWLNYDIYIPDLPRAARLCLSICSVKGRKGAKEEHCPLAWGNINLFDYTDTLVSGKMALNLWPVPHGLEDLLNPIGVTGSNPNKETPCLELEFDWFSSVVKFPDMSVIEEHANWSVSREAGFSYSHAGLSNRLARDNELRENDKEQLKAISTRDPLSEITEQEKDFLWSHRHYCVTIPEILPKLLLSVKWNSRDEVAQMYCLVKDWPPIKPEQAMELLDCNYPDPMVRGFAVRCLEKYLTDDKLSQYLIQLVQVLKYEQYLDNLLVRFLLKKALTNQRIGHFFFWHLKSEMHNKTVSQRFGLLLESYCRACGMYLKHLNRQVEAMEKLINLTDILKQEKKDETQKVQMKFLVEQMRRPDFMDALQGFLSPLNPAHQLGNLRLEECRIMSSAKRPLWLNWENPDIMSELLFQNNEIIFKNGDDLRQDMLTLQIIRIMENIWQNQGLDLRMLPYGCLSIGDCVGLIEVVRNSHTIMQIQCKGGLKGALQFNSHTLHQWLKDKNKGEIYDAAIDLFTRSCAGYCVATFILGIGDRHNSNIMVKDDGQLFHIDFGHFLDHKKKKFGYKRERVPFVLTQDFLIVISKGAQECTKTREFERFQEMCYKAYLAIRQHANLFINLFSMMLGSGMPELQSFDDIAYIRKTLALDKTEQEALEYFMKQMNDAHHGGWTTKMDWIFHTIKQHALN
Sequence of PI3Kα (P27986 whole entry partner, species assumed): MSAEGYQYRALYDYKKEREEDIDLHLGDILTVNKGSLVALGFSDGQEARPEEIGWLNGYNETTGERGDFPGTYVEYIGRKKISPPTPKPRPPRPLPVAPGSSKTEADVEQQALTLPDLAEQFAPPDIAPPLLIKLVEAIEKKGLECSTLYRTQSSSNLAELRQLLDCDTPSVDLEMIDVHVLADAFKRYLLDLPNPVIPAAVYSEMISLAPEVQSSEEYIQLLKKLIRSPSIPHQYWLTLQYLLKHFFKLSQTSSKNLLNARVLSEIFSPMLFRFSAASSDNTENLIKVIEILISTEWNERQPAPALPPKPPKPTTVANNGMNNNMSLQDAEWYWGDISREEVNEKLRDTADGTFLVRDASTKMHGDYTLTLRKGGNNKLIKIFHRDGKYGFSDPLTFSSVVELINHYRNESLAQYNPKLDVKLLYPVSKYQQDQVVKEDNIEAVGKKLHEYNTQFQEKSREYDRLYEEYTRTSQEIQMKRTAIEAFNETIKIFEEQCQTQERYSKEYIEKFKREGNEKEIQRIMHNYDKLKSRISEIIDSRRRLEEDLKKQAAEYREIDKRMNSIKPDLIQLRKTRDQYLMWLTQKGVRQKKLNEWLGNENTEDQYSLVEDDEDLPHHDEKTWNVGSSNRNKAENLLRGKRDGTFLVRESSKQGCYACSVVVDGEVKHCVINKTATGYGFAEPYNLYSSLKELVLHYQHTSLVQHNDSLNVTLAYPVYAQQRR

| Compound | IC50 [1] [nM] | IC50 [2] [nM] | IC50 [3] [nM] |
| --- | --- | --- | --- |
| Cn1cc(/C=C2\Oc3cccc(O)c3C2=O)c2c(-c3ccc(C(=O)NCCCO)cc3)ccnc21 [Compound 147, 4-{3-[(Z)-(4-hydroxy-3-oxo-1-benzofuran-2(3H)-ylidene)methyl]-1-methyl-1H-pyrrolo[2,3-b]pyridin-4-yl}-N-(3-hydroxypropyl)benzamide] | 0.6 | 38 | 54 |
| CONC(=O)c1ccc(-c2ccnc3c2c(/C=C2\Oc4ccc(NC(=O)Nc5cccnc5)cc4C2=O)cn3C)cc1 [Compound 248, N-methoxy-4-{1-methyl-3-[(Z)-{3-oxo-5-[(pyridin-3-ylcarbamoyl)amino]-1-benzofuran-2(3H)-ylidene}methyl]-1H-pyrrolo[2,3-b]pyridin-4-yl}benzamide] | 1650 | 976 | 479 |
| Cn1c(-c2ccccc2)c(/C=C2\Oc3cccc(O)c3C2=O)c2cccnc21 [Compound 29, (2Z)-4-hydroxy-2-[(1-methyl-2-phenyl-1H-pyrrolo[2,3-b]pyridin-3-yl)methylene]-1-benzofuran-3(2H)-one] | 2700 | 3670 | 8000 |
| CN1CCOc2cc(-c3ccnc4c3c(/C=C3\Oc5cccc(O)c5C3=O)cn4C)ccc21 [Compound 126, (2Z)-4-hydroxy-2-{[1-methyl-4-(4-methyl-3,4-dihydro-2H-1,4-benzoxazin-7-yl)-1H-pyrrolo[2,3-b]pyridin-3-yl]methylene}-1-benzofuran-3(2H)-one] | 6.2 | 802 | 8640 |
| Cn1cc(/C=C2\Oc3cccc(O)c3C2=O)c2c(-c3ccc(S(=O)(=O)NC4CC4)cc3)ccnc21 [Compound 82, N-cyclopropyl-4-{3-[(Z)-(4-hydroxy-3-oxo-1-benzofuran-2(3H)-ylidene)methyl]-1-methyl-1H-pyrrolo[2,3-b]pyridin-4-yl}benzenesulfonamide] | 1.4 | 20 | 70 |
| Cn1cc(/C=C2\Oc3cccc(O)c3C2=O)c2c(-c3ccc(N4CCOCC4)nc3)ccnc21 [Compound 69, (2Z)-4-hydroxy-2-{[1-methyl-4-(6-morpholin-4-ylpyridin-3-yl)-1H-pyrrolo[2,3-b]pyridin-3-yl]methylene}-1-benzofuran-3(2H)-one] | 24.8 | 64 | 281 |
| CN(C)CCNC(=O)c1ccc(-c2ccnc3c2c(/C=C2\Oc4cccc(O)c4C2=O)cn3C)cc1 [Compound 158, N-[2-(dimethylamino)ethyl]-4-{3-[(Z)-(4-hydroxy-3-oxo-1-benzofuran-2(3H)-ylidene)methyl]-1-methyl-1H-pyrrolo[2,3-b]pyridin-4-yl}benzamide] | 8.6 | 179 | 149 |
| Cn1cc(/C=C2\Oc3cccc(O)c3C2=O)c2c(-c3cccc(C(=O)Nc4ccc(F)cc4)c3)ccnc21 [Compound 96, N-(4-fluorophenyl)-3-{3-[(Z)-(4-hydroxy-3-oxo-1-benzofuran-2(3H)-ylidene)methyl]-1-methyl-1H-pyrrolo[2,3-b]pyridin-4-yl}benzamide] | 13 | 301 | 2700 |
| CNC(=O)Nc1ccc2c(c1)C(=O)/C(=C/c1c[nH]c3ncc(OC)cc13)O2 [Compound 119, 1-{(2Z)-2-[(5-methoxy-1H-pyrrolo[2,3-b]pyridin-3-yl)methylene]-3-oxo-2,3-dihydro-1-benzofuran-5-yl}-3-methylurea] | 72 | 46 | 183 |
| CONC(=O)c1ccc(-c2ccnc3c2c(/C=C2\Oc4cccc(O)c4C2=O)cn3C)cc1 [Compound 192, 4-{3-[(Z)-(4-hydroxy-3-oxo-1-benzofuran-2(3H)-ylidene)methyl]-1-methyl-1H-pyrrolo[2,3-b]pyridin-4-yl}-N-methoxybenzamide] | 1 | 26 | 39 |
| CN1CCN(C(=O)c2ccc(-c3ccnc4c3c(/C=C3\Oc5cccc(O)c5C3=O)cn4C)cc2)CC1 [Compound 124, (2Z)-4-hydroxy-2-[(1-methyl-4-{4-[(4-methylpiperazin-1-yl)carbonyl]phenyl}-1H-pyrrolo[2,3-b]pyridin-3-yl)methylene]-1-benzofuran-3(2H)-one] | 1 | 70 | 184 |
| CN1CCN(c2ccc(NC(=O)Nc3ccc4c(c3)C(=O)/C(=C/c3cn(C)c5nccc(N6CCC(C(=O)N(C)C)CC6)c35)O4)cn2)CC1 [Compound 230, N,N-dimethyl-1-(1-methyl-3-{(Z)-[5-({[6-(4-methylpiperazin-1-yl)pyridin-3-yl]carbamoyl}amino)-3-oxo-1-benzofuran-2(3H)-ylidene]methyl}-1H-pyrrolo[2,3-b]pyridin-4-yl)piperidine-4-carboxamide] | 74 | 10900 | > 10000 |
| CNc1ccc(-c2ccnc3c2c(/C=C2\Oc4cc(O)cc(O)c4C2=O)cn3C)cc1 [Compound 43, (2Z)-4,6-dihydroxy-2-({1-methyl-4-[4-(methylamino)phenyl]-1H-pyrrolo[2,3-b]pyridin-3-yl}methylene)-1-benzofuran-3(2H)-one] | 0.4 | 19 | 66 |
| CN1CCN(c2ccc(NC(=O)Nc3ccc4c(c3)C(=O)/C(=C/c3cn(C)c5nccc(N6CCC(C(=O)N(C)C)CC6)c35)O4)cc2)CC1 [Compound 218, N,N-dimethyl-1-(1-methyl-3-{(Z)-[5-({[4-(4-methylpiperazin-1-yl)phenyl]carbamoyl}amino)-3-oxo-1-benzofuran-2(3H)-ylidene]methyl}-1H-pyrrolo[2,3-b]pyridin-4-yl)piperidine-4-carboxamide] | 445 | 994 | > 10000 |
| Cn1cc(/C=C2\Oc3cccc(O)c3C2=O)c2c(-c3ccc(S(C)(=O)=O)cc3)ccnc21 [Compound 73, (2Z)-4-hydroxy-2-({1-methyl-4-[4-(methylsulfonyl)phenyl]-1H-pyrrolo[2,3-b]pyridin-3-yl}methylene)-1-benzofuran-3(2H)-one] | 3.1 | 23 | 75 |

Further lines, results first:

| IC50 [1] [nM] | IC50 [2] [nM] | IC50 [3] [nM] | Compound |
| --- | --- | --- | --- |
| 26.5 | > 10000 | 4160 | Cn1cc(C=C2Oc3ccc(NC(=O)Nc4cccnc4)cc3C2=O)c2c(N3CCC(C(=O)N[C@H]4CCNC4)CC3)ccnc21 [Compound 209, 1-[1-methyl-3-({3-oxo-5-[(pyridin-3-ylcarbamoyl)amino]-1-benzofuran-2(3H)-ylidene}methyl)-1H-pyrrolo[2,3-b]pyridin-4-yl]-N-[(3S)-pyrrolidin-3-yl]piperidine-4-carboxamide] |
| 4.8 | > 10000 | > 10000 | COCCCNC(=O)C1CCN(c2ccnc3c2c(C=C2Oc4ccc(NC(=O)Nc5cccnc5)cc4C2=O)cn3C)CC1 [Compound 200, N-(3-methoxypropyl)-1-[1-methyl-3-({3-oxo-5-[(pyridin-3-ylcarbamoyl)amino]-1-benzofuran-2(3H)-ylidene}methyl)-1H-pyrrolo[2,3-b]pyridin-4-yl]piperidine-4-carboxamide] |
| 215 | 2590 | 6090 | CN(C)C(=O)C1CCN(c2ccnc3c2c(/C=C2\Oc4ccc(NC(=O)Nc5ccc(N6CCOCC6)cc5)cc4C2=O)cn3C)CC1 [Compound 268, N,N-dimethyl-1-(1-methyl-3-{(Z)-[5-{[(4-morpholin-4-ylphenyl)carbamoyl]amino}-3-oxo-1-benzofuran-2(3H)-ylidene]methyl}-1H-pyrrolo[2,3-b]pyridin-4-yl)piperidine-4-carboxamide] |
| 29 | 2220 | > 10000 | Cn1cc(/C=C2\Oc3ccc(NC(=O)Nc4ccc(N5CCOCC5)nc4)cc3C2=O)c2c(N3CC4CCC(C3)O4)ccnc21 [Compound 219, 1-[(2Z)-2-{[1-methyl-4-(8-oxa-3-azabicyclo[3.2.1]oct-3-yl)-1H-pyrrolo[2,3-b]pyridin-3-yl]methylidene}-3-oxo-2,3-dihydro-1-benzofuran-5-yl]-3-(6-morpholin-4-ylpyridin-3-yl)urea] |
| 145 | 498 | 1120 | Cn1cc(/C=C2\Oc3ccc(NC(=O)Nc4ccccc4)cc3C2=O)c2c(N3CC4CCC(C3)O4)ccnc21 [Compound 172, 1-[(2Z)-2-{[1-methyl-4-(8-oxa-3-azabicyclo[3.2.1]oct-3-yl)-1H-pyrrolo[2,3-b]pyridin-3-yl]methylidene}-3-oxo-2,3-dihydro-1-benzofuran-5-yl]-3-phenylurea] |
| 23.5 | 2370 | 1420 | COc1ccnc(CN(C)C(=O)C2CCN(c3ccnc4c3c(/C=C3\Oc5ccc(NC(=O)Nc6cccnc6)cc5C3=O)cn4C)CC2)c1 [Compound 224, N-[(4-methoxypyridin-2-yl)methyl]-N-methyl-1-{1-methyl-3-[(Z)-{3-oxo-5-[(pyridin-3-ylcarbamoyl)amino]-1-benzofuran-2(3H)-ylidene}methyl]-1H-pyrrolo[2,3-b]pyridin-4-yl}piperidine-4-carboxamide] |
| 150 | 1250 | > 10000 | CN(C)C(=O)C1CCN(c2ccnc3c2c(/C=C2\Oc4ccc(NC(=O)Nc5nc6ccccc6n5C)cc4C2=O)cn3C)CC1 [Compound 290, N,N-dimethyl-1-(1-methyl-3-{(Z)-[5-{[(1-methyl-1H-benzimidazol-2-yl)carbamoyl]amino}-3-oxo-1-benzofuran-2(3H)-ylidene]methyl}-1H-pyrrolo[2,3-b]pyridin-4-yl)piperidine-4-carboxamide] |
| 50 | > 10000 | > 10000 | CN(C(=O)C1CCN(c2ccnc3c2c(C=C2Oc4ccc(NC(=O)Nc5cccnc5)cc4C2=O)cn3C)CC1)[C@H]1CCNC1 [Compound 208, N-methyl-1-[1-methyl-3-({3-oxo-5-[(pyridin-3-ylcarbamoyl)amino]-1-benzofuran-2(3H)-ylidene}methyl)-H-pyrrolo[2,3-b]pyridin-4-yl]-N-[(3S)-pyrrolidin-3-yl]piperidine-4-carboxamide] |
